# Test results taken from patent US20130190200A1, “SNP FOR PREDICTING THE SENSITIVITY TO ANTICANCER TARGETED THERAPEUTIC FORMULATION” (Korea Research Institute of Bioscience and Biotechnology, priority 2010, published 2013).
# How the values were obtained:
# [1] = test system: metastatic cancer patients; test: Clinical association analysis of drug response (RECIST criteria) on subjects treated with anticancer targeted drugs; format: in vivo, human; details: homozygous substitution alleles of ANXA11 rs1049550 and homozygous or heterozygous substitution alleles of LINS1 rs11247226; P=0.025, 0.019
# From the text: (§1) The prediction of clinical outcomes of the corresponding patients was based on the NCCN surveillance guidelines (www.nccn.org), and the determination of chemosensitivity to anticancer drugs were based on the RECIST criteria (Therasse et al., J Natl Cancer Inst 2000; 92:205-16).
# [2] = test system: recurrent and metastatic colorectal cancer patients; test: Clinical association analysis related to survival on subjects treated with anticancer targeted drugs; format: in vivo, human
# Experimental: as §1
# Association analysis was performed on the SNP genotypes sensitive to the individual anticancer drugs obtained in steps (1) and (2) in colorectal cancer patients whose treatment with the corresponding drugs was terminated.
substance,measurement,setting,value
bevacizumab,"disease-control response rate, in words",[1],significantly high disease-control response rate
same,"sensitivity and survival, in words (FIG. 2)",[2]; homozygous or heterozygous substitution alleles of ITGA3 rs2230392 vs homozygous reference alleles,greater sensitivity and longer progression-free survival and overall survival
same,mean overall survival (OS),"[2]; patients carrying homozygous or heterozygous substitution alleles of ITGA3 rs2230392, P=0.006 vs homozygous reference",22.5±2.1 months
same,mean progression-free survival (PFS),"[2]; patients carrying homozygous or heterozygous substitution alleles of ITGA3 rs2230392, P=0.018 vs homozygous reference",8.7±0.7 months
same,mean overall survival (OS),"[2]; patients with homozygous reference alleles of ITGA3 rs2230392, P=0.006",13.4±1.9 months
same,mean progression-free survival (PFS),"[2]; patients with homozygous reference alleles of ITGA3 rs2230392, P=0.018",5.7±0.7 months
